{"source": "patent US20120214784A1", "about": "“SPIROPIPERIDINE COMPOUNDS AS ORL-1 RECEPTOR ANTAGONISTS” (ELI LILLY AND COMPANY, priority 2009, published 2012)", "key": {"Muscarinic M1": {"biological_target": "Muscarinic M1 (Homo sapiens, UniProt P11229)", "sequence (P11229 whole entry)": "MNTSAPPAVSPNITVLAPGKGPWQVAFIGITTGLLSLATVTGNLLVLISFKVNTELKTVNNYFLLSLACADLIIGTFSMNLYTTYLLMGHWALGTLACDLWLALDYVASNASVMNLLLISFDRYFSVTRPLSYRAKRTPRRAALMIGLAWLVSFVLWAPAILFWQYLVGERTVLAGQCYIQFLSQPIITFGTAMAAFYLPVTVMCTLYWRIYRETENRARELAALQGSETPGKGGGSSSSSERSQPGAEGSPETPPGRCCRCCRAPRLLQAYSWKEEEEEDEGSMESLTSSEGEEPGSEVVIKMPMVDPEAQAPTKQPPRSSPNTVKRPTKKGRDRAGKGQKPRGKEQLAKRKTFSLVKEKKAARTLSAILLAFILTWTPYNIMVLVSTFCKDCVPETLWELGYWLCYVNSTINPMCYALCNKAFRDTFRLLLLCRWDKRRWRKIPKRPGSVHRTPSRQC", "experiment": "Radioligand binding selectivity", "description": "(§1) Radioligand binding assays are commonly used to determine the affinity (Ki) or potency of a compound to bind to a particular receptor or target protein. A filtration-based [3H]-OFQ/nociceptin receptor binding assay is developed based on previous assay formats (Ardati A, Henningsen R A, Higelin J, Reinscheid R K, Civelli O, Monsma F J Jr. Mol. Pharmacol. 1997 May; 51(5):816-24.) with minor modifications. [3H]-OFQ/nociceptin binding assays are carried out in deep-well 96-well plates. [^3H]OFQ (final assay concentration 0.2 nM) competition studies are carried out with 5-10 μg of membrane protein (isolated from Chinese hamster ovary cells (CHO cells) expressing cloned human ORL1 receptors) in a final assay volume of 0.5 mL of buffer containing 20 mM HEPES, pH 7.4, 5 mM MgCl2, 1 mM EGTA, 100 mM NaCl, 0.1% bovine serum albumin. Samples are incubated for 60 min. at room temperature, which is found to be optimal for competition assays. The assays are terminated by filtration through glass fiber filters (Wallac filtermat A) [pretreated with 0.3% polyethylenimine (Sigma) for 1 hr] on a Tometc cell harvester, and the filters are washed three times with 5 mL of ice-cold 50 mM Tris.HCl, pH 7.4. Filtermats are then dried and imbedded with Meltilex scintillant A and the radioactivity counted in a Wallac Microbeta scintillation counter. Specific binding is determined by displacement with 100 nM unlabeled nociceptin. Curves are plotted as the percent of specific binding and IC50 values are determined using a sigmoidal dose response curve with variable slope. K, values are calculated from the IC50 by the equation of Cheng and Prusoff (Cheng, Y. C., and Prusoff, W. H., Biochem. Pharmacol. 22, 3099-3108 (1973)) where Ki=IC50×(1+D×Kd^−1)^−1. Similarly, Ki for the mu, kappa and delta opioids, serotonin, adrenergic, and muscarinic receptors may be determined using membranes expressing the desired receptor and appropriate corresponding radioligand competitor molecules."}, "5-HT1A": {"biological_target": "5-HT1A (Homo sapiens, UniProt P08908)", "sequence (P08908 whole entry, species assumed)": "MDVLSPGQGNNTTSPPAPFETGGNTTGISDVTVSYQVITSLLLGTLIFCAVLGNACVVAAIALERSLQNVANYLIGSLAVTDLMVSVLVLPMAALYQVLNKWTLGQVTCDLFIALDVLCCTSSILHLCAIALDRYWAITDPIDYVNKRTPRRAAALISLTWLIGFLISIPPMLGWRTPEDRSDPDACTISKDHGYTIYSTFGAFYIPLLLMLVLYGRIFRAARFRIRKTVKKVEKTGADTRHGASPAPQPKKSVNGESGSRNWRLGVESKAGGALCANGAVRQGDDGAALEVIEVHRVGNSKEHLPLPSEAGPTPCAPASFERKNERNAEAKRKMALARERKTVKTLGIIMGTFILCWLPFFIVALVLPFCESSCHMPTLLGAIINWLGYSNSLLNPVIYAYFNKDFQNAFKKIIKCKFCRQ", "experiment": "Radioligand binding selectivity", "description": "as §1"}, "Muscarinic M4": {"biological_target": "Muscarinic M4 (Homo sapiens, UniProt P08173)", "sequence (P08173 whole entry)": "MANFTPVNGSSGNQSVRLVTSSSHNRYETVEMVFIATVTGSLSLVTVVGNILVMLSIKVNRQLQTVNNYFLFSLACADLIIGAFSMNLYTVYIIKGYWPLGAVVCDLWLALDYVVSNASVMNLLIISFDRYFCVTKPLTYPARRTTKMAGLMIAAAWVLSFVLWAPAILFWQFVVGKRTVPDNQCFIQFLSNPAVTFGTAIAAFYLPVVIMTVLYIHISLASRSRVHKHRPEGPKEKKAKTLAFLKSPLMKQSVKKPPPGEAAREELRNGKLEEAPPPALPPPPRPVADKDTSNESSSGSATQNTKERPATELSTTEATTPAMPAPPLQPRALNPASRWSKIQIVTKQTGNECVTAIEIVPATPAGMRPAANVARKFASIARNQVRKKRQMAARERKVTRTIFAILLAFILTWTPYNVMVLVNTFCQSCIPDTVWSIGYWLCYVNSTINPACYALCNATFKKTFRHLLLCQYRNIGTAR", "experiment": "Radioligand binding selectivity", "description": "as §1"}, "Muscarinic M2": {"biological_target": "Muscarinic M2 (Homo sapiens, UniProt P08172)", "sequence (P08172 whole entry)": "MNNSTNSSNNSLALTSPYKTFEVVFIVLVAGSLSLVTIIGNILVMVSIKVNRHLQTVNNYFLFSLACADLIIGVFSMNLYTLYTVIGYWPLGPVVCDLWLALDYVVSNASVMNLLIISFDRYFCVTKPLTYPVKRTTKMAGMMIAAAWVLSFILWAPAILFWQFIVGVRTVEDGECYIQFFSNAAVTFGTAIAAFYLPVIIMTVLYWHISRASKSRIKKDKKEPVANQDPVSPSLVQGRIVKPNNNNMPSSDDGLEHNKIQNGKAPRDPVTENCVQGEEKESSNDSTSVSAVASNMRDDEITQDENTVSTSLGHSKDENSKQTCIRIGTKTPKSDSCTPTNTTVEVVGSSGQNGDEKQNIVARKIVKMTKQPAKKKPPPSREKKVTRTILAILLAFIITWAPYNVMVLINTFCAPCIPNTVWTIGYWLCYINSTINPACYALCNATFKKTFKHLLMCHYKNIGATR", "experiment": "Radioligand binding selectivity", "description": "as §1"}, "5-HT1D": {"biological_target": "5-HT1D (Homo sapiens, UniProt P28221)", "sequence (P28221 whole entry, species assumed)": "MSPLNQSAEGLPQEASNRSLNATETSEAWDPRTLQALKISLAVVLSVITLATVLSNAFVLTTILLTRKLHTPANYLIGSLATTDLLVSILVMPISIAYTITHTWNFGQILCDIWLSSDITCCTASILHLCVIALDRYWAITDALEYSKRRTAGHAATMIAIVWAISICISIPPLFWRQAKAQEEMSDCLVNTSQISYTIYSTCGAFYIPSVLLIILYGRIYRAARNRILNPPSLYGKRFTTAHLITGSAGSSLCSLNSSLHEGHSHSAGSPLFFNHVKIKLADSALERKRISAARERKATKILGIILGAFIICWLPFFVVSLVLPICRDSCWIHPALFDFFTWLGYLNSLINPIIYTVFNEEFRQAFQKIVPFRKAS", "experiment": "Radioligand binding selectivity", "description": "as §1"}, "5-HT7": {"biological_target": "5-HT7 (Homo sapiens, UniProt P34969)", "sequence (P34969 whole entry, species assumed)": "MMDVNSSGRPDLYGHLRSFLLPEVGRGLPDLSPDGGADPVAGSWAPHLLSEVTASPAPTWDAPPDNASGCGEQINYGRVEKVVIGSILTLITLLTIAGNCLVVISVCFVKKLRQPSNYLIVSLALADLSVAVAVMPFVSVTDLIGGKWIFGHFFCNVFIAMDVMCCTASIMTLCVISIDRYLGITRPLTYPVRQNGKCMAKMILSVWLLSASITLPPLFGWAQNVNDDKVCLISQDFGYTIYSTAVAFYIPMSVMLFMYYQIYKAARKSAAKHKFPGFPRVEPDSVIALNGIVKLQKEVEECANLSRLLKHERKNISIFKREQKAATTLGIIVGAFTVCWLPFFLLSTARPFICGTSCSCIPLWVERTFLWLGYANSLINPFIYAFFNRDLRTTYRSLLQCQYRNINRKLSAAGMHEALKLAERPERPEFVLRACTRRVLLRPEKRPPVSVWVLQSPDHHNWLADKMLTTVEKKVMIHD", "experiment": "Radioligand binding selectivity", "description": "as §1"}, "Kappa Opioid": {"biological_target": "Kappa Opioid (Homo sapiens, UniProt P41145)", "sequence (P41145 whole entry)": "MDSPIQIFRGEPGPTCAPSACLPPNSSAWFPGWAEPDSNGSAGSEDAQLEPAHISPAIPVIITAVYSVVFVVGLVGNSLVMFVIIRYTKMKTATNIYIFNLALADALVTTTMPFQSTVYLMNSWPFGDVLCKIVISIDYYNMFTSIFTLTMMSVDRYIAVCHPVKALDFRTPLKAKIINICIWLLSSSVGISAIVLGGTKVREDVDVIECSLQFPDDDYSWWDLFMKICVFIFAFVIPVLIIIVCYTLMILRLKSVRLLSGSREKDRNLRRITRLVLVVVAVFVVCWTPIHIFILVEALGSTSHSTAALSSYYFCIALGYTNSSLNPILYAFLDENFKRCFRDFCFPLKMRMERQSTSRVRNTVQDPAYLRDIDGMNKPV", "experiment": "Radioligand binding selectivity", "description": "as §1"}, "5-HT1E": {"biological_target": "5-HT1E (Homo sapiens, UniProt P28566)", "experiment": "Radioligand binding selectivity", "description": "as §1"}, "5-HT1B": {"biological_target": "5-HT1B (Homo sapiens, UniProt P28222)", "sequence (P28222 whole entry, species assumed)": "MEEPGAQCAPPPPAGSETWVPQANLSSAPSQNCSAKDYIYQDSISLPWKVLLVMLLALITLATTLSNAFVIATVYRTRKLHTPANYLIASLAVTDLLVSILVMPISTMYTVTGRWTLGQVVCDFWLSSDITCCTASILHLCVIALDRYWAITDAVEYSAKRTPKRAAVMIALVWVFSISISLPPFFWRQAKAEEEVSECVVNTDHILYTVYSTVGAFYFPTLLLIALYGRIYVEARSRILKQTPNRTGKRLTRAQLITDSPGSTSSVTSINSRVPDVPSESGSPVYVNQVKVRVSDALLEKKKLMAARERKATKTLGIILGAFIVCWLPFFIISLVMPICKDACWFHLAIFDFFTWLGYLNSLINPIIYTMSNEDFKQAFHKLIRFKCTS", "experiment": "Radioligand binding selectivity", "description": "as §1"}, "5-HT2B": {"biological_target": "5-HT2B (Homo sapiens, UniProt P41595)", "experiment": "Radioligand binding selectivity", "description": "as §1"}, "[1]": {"biological_target": "T1, cloned human ORL1 receptors (Homo sapiens, UniProt P41146)", "T1 construct": "expressed in transfected cells; host or cells: CHO cells (membranes)", "T1 sequence (P41146 whole entry)": "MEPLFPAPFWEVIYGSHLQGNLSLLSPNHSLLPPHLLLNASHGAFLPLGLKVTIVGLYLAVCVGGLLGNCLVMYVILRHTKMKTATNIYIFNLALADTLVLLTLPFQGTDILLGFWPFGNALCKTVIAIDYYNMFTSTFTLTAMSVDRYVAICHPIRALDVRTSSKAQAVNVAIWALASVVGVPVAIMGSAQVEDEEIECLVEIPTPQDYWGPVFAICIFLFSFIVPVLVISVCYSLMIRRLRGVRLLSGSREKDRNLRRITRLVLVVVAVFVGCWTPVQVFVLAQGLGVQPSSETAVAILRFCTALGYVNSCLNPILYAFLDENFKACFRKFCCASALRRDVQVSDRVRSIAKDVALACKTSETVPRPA", "experiment": "[3H]-OFQ/nociceptin receptor binding assay", "description": "as §1"}, "[2]": {"system": "NIH-Swiss mice; 129S6 wild type and nociceptin/ORL1 receptor knockout mice", "experiment": "Forced-swim test in mice (mFST)", "type": "in vivo, mouse", "conditions": "mFST", "text": "Forced-Swim Test in Mice (mFST) mFST is an established in vivo assay for antidepressant activity (Li et al. J Pharmacol Exp Ther. 319(1):254-9, 2006.). […] The mFST was used to evaluate potential antidepressant-like activity of novel nociceptin/ORL1 antagonists according to previously published methods (Li et al. J Pharmacol Exp Ther. 319(1):254-9, 2006.). Briefly, male NIH-Swiss mice (Harlan Sprague-Dawley, Indianapolis, Ind.) weighing between 25-30 g are used. Group housed animals are removed from the vivarium to the testing area in their own cages and allowed to adapt to the new environment for at least 1 hour before testing. Alternatively, male 129S6 wild type and nociceptin/ORL1 receptor knockout mice were used to confirm dependence of the response to compound was nociceptin/ORL1 receptor dependent. All compounds are prepared in 20% Captisol, 25 mM phosphate buffer, pH 2.0 on the day of use. Mice are placed in a cylinder (diameter: 10 cm; height: 25 cm) filled with 6 cm of water (22-25° C.) for 6 min. The duration of immobility during the last 4 min. of the 6 min. period of the test was scored. A mouse is recorded as immobile when floating motionless or making only those movements necessary to keep its head above water."}, "[3]": {"biological_target": "human ERG (hERG) K+ channel (Homo sapiens, UniProt Q12809)", "sequence (Q12809 whole entry)": "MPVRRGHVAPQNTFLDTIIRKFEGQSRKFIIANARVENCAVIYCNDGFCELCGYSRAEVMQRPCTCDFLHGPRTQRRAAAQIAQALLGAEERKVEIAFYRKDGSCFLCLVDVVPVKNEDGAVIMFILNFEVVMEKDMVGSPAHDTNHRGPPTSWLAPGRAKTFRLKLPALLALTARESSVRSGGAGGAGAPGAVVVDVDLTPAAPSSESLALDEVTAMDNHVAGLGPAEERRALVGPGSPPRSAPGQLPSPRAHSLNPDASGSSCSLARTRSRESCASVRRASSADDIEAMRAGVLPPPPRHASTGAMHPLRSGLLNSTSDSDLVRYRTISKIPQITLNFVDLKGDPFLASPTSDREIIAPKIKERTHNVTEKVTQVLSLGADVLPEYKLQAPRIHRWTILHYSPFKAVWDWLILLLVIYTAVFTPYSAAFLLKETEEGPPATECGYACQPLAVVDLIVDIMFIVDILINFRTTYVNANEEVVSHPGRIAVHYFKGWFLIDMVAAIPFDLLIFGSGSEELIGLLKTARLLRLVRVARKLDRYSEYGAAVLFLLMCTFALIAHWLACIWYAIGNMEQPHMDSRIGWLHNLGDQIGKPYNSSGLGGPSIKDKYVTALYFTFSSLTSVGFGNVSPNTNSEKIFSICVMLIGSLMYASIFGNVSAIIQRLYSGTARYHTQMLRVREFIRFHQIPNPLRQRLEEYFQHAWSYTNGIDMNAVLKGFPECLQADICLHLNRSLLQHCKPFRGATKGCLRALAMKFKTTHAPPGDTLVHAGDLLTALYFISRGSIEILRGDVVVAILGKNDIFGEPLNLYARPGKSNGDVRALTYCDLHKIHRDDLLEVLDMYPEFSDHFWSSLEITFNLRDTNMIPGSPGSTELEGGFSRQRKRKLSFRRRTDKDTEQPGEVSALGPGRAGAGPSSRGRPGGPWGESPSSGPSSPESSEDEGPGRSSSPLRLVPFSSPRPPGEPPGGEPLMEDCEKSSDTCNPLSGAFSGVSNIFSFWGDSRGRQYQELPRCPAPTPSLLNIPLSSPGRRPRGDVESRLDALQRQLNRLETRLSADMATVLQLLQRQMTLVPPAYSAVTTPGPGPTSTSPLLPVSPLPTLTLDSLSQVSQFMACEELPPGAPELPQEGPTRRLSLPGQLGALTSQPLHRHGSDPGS", "experiment": "hERG channel [3H]astemizole binding assay", "conditions": "HEK293 cells expressing cloned hERG, [3H]astemizole 2 nM; read-out: Ki for hERG K+ channel", "description": "Blockade of K^+-channel conductance in the heart is associated with cardiotoxicity in the form of QT-wave prolongation. The affinity (Ki) of the exemplified nociceptin receptor antagonists for the human ERG (hERG) K^+ channel is determined in HEK293 cells expressing cloned hERG using the hERG channel antagonist radioligand [3H]astemizole (2 nM final assay concentration) according to well known procedures (see for example Finlayson K, et al. (Eur J Pharmacol. 412(3):203-12, 2001) [3H]Astemizole binding assays are performed at the contract research company Cerep (Paris France) according to standard procedures."}, "[4]": {"system": "wild type and ORL knockout mice", "experiment": "Blockade of fasting-induced hyperphagia in mice", "type": "in vivo, mouse", "conditions": "wild type mice, oral gavage 30 min. prior to food, food intake 1 hr", "text": "Blockade of fasting-induced hyperphagia in rats is an accepted model for hyperphagic eating disorders. […] Mice are individually housed a minimum of 3 days prior to the onset of testing to eliminate any effects of stress due to the change from group to individual housing. Three mice/genotype are randomly assigned to each treatment group on the test day. Pre-fast body weight measurements are taken, and food is then removed from cages overnight. Mice are fasted for approximately 15 hr. The next morning, the mice are given one of three doses of drug or vehicle via oral gavage 30 min. prior to gaining access to food. Drugs are dissolved in 20% Captisol dissolved in 25 mM phosphate buffer, pH 2.0. Measurements of body weight are taken immediately prior to drug treatment or 24 hr. after access to food is restored. […] Measurements of food intake are recorded 1 hr following access to food, as indicated, by weight of food remaining at 1 hr. It should be noted that food intake measured is during the light phase, a time during which mice are typically at rest and not normally eating. Following initial testing, mice are rested for 1 week with access to unlimited chow."}}}
{"smiles": "Cc1nn(-c2c(F)cccc2F)cc1CN1CCC2(CC1)OCC(F)(F)c1cc(Cl)sc12.O=C(O)C(O)C(O)C(=O)O", "note": "[Example 2, 2-Chloro-1′-[[1-(2,6-difluorophenyl)-3-methyl-pyrazol-4-yl]methyl]-4,4-difluoro-spiro[5H-thieno[2,3-c]pyran-7,4′-piperidine] (L)-Tartrate]", "values": [{"measurement": "Ki", "setting": "Muscarinic M1", "result": 1380, "unit": "nM"}, {"measurement": "Ki", "setting": "5-HT1A", "result": "> 3180", "unit": "nM"}, {"measurement": "Ki", "setting": "Muscarinic M4", "result": 6360, "unit": "nM"}, {"measurement": "Ki", "setting": "Muscarinic M2", "result": "> 8000", "unit": "nM"}, {"measurement": "Ki", "setting": "5-HT1D", "result": "> 7890", "unit": "nM"}, {"measurement": "Ki", "setting": "5-HT7", "result": "> 3980", "unit": "nM"}, {"measurement": "Ki", "setting": "Kappa Opioid", "result": "> 458", "unit": "nM"}, {"measurement": "Ki", "setting": "5-HT1E", "result": "> 5370", "unit": "nM"}, {"measurement": "Ki", "setting": "5-HT1B", "result": "> 3580", "unit": "nM"}, {"measurement": "Ki", "setting": "5-HT2B", "result": 1160, "unit": "nM"}, {"measurement": "Ki", "setting": "[1]", "result": 0.17, "unit": "nM"}, {"measurement": "maximum effect, reduction in immobilization time", "setting": "[2]", "result": 56, "unit": "%"}, {"measurement": "ED60", "setting": "[2]; immobility time", "result": 23, "unit": "nM"}, {"measurement": "Ki", "setting": "[3]", "result": 2890, "unit": "nM"}, {"measurement": "fasting-induced hyperphagia", "setting": "[4]", "result": "substantially block fasting-induced hyperphagia"}]}
